Assays:
[1] = Inhibition of SARS CoV 3C-like protease expressed in Escherichia coli GJ1158 using 2-aminobenzoyl-SVTLQSG-Tyr(NO2)-R as substrate by FRET assay; set-up: species or system Severe acute respiratory syndrome-related coronavirus
[2] = Inhibition of SARS CoV 3C-like protease using Abz-SVTLQSG-Tyr(NO2)R as substrate by fluorescence method; set-up: species or system Severe acute respiratory syndrome-related coronavirus
[3] = Inhibition of SARS CoV 3C-like protease; set-up: species or system Severe acute respiratory syndrome-related coronavirus
[4] = Inhibition of SARS CoV His-tagged 3C-like protease expressed in Escherichia coli BL21 using Dabcyl-KTSAVLQ-SGFRKME-Edans as substrate by Lineweaver-Burk analysis; set-up: species or system Severe acute respiratory syndrome-related coronavirus
[5] = Inhibition of SARS CoV HKU3984 His-tagged 3C-like protease using H2N-TSAVLQSGFRKW-COOH as substrate by HPLC method; set-up: species or system Severe acute respiratory syndrome-related coronavirus
[6] = Competitive inhibition of SARS CoV 3C-like protease using fluorogenic substrate by Lineweaver-Burk plot analysis; set-up: species or system Severe acute respiratory syndrome-related coronavirus
[7] = Inhibition of SARS CoV 3C-like protease using Dabcyl-KTSAVLQSGFRKME-Edans as substrate by fluorometric assay; set-up: species or system Severe acute respiratory syndrome-related coronavirus
[8] = Inhibition of MERS CoV 3C-like protease using Dabcyl-KTSAVLQSGFRKME-Edans as substrate by fluorometric assay; set-up: species or system Middle East respiratory syndrome-related coronavirus
[9] = test system: Severe acute respiratory syndrome-related coronavirus; experiment: Irreversible inhibition of SARS CoV 3C-like protease assessed as ratio of Kinact to Ki using Abz-Ser-Val-Thr-Leu-Gln-Ser-Gly-(NO2)Tyr-Arg as substrate by fluorescence method
[10] = Inhibition of SARS CoV papain-like protease using Arg-Leu-Arg-Gly-Gly-AMC as substrate by fluorescence method; set-up: species or system Severe acute respiratory syndrome-related coronavirus
[11] = Inhibition of SARS CoV 3C-like protease using 12-mer fluorogenic peptide Dabcyl-KNSTLQSGLRKE-Edans as substrate incubated for 60 mins by fluorometric assay; set-up: species or system Severe acute respiratory syndrome-related coronavirus

SMILES: Cc1ccc2nc(-c3ccc(N)cc3)sc2c1S(=O)(=O)O
- IC50 [1]: 4.3 µM

SMILES: CC(=O)N[C@H](C(=O)N[C@H](C(=O)N[C@@H](CC(C)C)C(=O)N[C@@H](C[C@@H]1CCNC1=O)C(=O)CN1Cc2cccc([N+](=O)[O-])c2C(=O)N1)[C@@H](C)OCc1ccccc1)C(C)C
- IC50 [2]: 0.6 µM

SMILES: O=C(/C=C/c1ccccc1)N[C@@H](CC1CCCCC1)C(=O)N[C@@H](C[C@@H]1CCNC1=O)C(=O)C(=O)NCc1ccccc1
- IC50 [3]: 0.71 µM

SMILES: CC(C)[C@H](NC(=O)[C@H](C)NC(=O)OCc1ccccc1)C(=O)C[C@@H](Cc1ccccc1)[C@@H](O)[C@H](O)[C@H](Cc1ccccc1)NC(=O)[C@@H](NC(=O)[C@H](C)NC(=O)OCc1ccccc1)C(C)C
- Ki [4]: 0.6 µM

SMILES: O=C(/C=C/c1ccccc1)N[C@@H](Cc1ccccc1)C(=O)N[C@@H](C[C@@H]1CCNC1=O)C(=O)C(=O)NCc1ccccc1
- IC50 [3]: 1.95 µM

SMILES: CC1=C(C(=O)OCCc2ccccc2)C(c2ccccc2[N+](=O)[O-])C2=C(CCCC2=O)N1 (configuration not stated)
- IC50 [5]: 2.5 µM

SMILES: CC(C)[C@H](NC(=O)[C@H](C)NC(=O)OCc1ccccc1)C(=O)C[C@@H](Cc1c[nH]c2ccccc12)[C@@H](O)[C@H](O)[C@H](Cc1c[nH]c2ccccc12)NC(=O)[C@@H](NC(=O)[C@H](C)NC(=O)OCc1ccccc1)C(C)C
- Ki [6]: 0.073 µM

SMILES: O=C[C@@H](C[C@H]1CCNC1=O)NC(=O)[C@@H](Cc1ccccc1)NC(=O)/C=C/c1ccc(Cl)cc1F
- IC50 [7]: 0.2 µM
- IC50 [8]: 4.7 µM

SMILES: CCOC(=O)C1OC1C(=O)N(CCC(N)=O)NC(=O)[C@H](Cc1ccccc1)NC(=O)[C@H](CC(C)C)NC(=O)OCc1ccccc1 (some centres not stated)
- Ratio [9]: 1900 M⁻¹ s⁻¹

SMILES: O=C(/C=C/CCc1ccc(O)c(O)c1)CCc1ccc(O)c(O)c1 [DEHYDROHIRSUTANONOL]
- IC50 [10]: 4.1 µM
- IC50 [11]: 36.2 µM

— ChEMBL document CHEMBL4732232, “Protease targeted COVID-19 drug discovery: What we have learned from the past SARS-CoV inhibitors?” (Eur J Med Chem, 2021)
